Assay results: article PMC11025887, “The SARM1 TIR domain produces glycocyclic ADPR molecules as minor products” (PLOS ONE, 2024)

Target: T1, Drosophila SARM1 TIR domain (Drosophila melanogaster, UniProt Q6IDD9)
T1 construct: gene Sarm; TIR domain only; N-terminal 6xHis tag kept; codon optimized; E. coli BL21(DE3)
T1 sequence (Q6IDD9 837-981 limits assumed): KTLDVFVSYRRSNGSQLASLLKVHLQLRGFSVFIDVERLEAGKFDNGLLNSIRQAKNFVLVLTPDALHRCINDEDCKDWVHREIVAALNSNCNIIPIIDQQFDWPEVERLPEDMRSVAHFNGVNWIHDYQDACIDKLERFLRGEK
Assay: LC-MS/MS of NAD+ and products
Assay type: biochemical
Conditions: […] protein; […] NAD+; […] HEPES-KOH pH […]; […] NaCl; […] TCEP; […] C; […] h; main product cADPR

NC(=O)c1ccc[n+]([C@@H]2O[C@H](COP(=O)(O)OP(=O)(O)OC[C@H]3O[C@@H](n4cnc5c(N)ncnc54)[C@H](O)[C@@H]3O)[C@@H](O)[C@H]2O)c1 [NAD^+]
LC-MS/MS of NAD+ and products: SARM1 TIR domains consumed NAD^+ efficiently
